Patent US20260306641A1, “HELICASE DEGRADERS” (priority 2023, published 2026)

Key:
[1] = tested on: T1, human CMG helicase (hCMG); experiment: hCMG ATPase activity, FP ADP^2 Transcreener assay; format: biochemical; conditions: primary FP ATPase assay
T1 construct: made in house; host or cells: High Five insect cells, baculovirus (11 viruses co-infected)
Description: The fluorescent-polarization (FP) ADP-sensing assays were performed using the Transcreener® ADP^2 FP assay kit (cat #3010-1K, Bellbrook Labs). For hCMG inhibitor screening, assays were performed at 37° C. for 1 hr in 10 μl reactions in a 384-well plate (cat. #4514, Corning) using 2 μL of hCMG (~15 fmol), 25 mM Hepes-NaOH (pH 7.5), 10 mM NaCl, 0.5 mM ATP, 10 mM magnesium acetate, 1 mM DTT, 0.1 mg/ml BSA, and DNA fork substrates. […] Selected inhibitors or samples from a chemical library were added into the reactions when conducting the screening or testing inhibitor effectiveness. The NCI Diversity Set VI chemical library was obtained from the National Cancer Institute (Bethesda, MD).
The window of sensitivity for the ADP-sensing assays is determined by setting up two 10 μL control samples without any added hCMG helicase: a Low-FP mixture (4 nM ADP Alexa Fluor-633 Tracer alone) and a High-FP mixture (4 nM ADP Alexa Fluor-633 Tracer plus patented anti-ADP^2 Antibody). The amount of ADP^2 Antibody used had to be adjusted to account for the use of 500 μM ATP in our hCMG assays, versus 10 μM ATP in enzyme reactions typically assessed with standard kits prepared by BellBrook Labs. […] This was done according to the manufacturer by performing a titration with increasing ADP^2 Antibody, fixed 4 nM ADP Alexa Fluor-633 Tracer, and 500 μM ATP to determine the ~EC80-85 for millipol (mP) changes, which determined the optimal ADP^2 Antibody concentration to use as 0.64 mg/ml (FIG. 9A). Samples are read with a Perkin Elmer Envision II plate reader with optimized Cy5 (far-red) FP-compatible mirror and cubes (cat #2100-8390, Perkin Elmer). The Low-FP sample is the least polarized and gives a low mP reading, while the High-FP sample is the most polarized and gives the highest mP reading. The difference between the Low-FP and High-FP values defines the FP assay window, which is normally in a range of 150-200 mP under ideal conditions for screening purposes. The hCMG helicase hydrolyzes ATP to ADP and decreases the mP reading within this window, with an ideal change (ΔmP) in the FP window of at least 50% to be in a readable range for inhibitor screening (as per manufacturer). Potential hCMG chemical inhibitors reverse this effect and cause the mP readings to increase.
We performed a titration with increasing and decreasing concentrations of ADP and ATP, respectively, to assess the sensitivity of the FP assay in detecting ADP production (FIG. 9B). Consistent with the stated manufacturer predictions, the assay can reliably detect 1-3% changes in ADP production (i.e., 5-15 μM ADP production) in starting concentrations of ATP of 500 μM, with a Z′ efficiency between 0.6-0.8 (determined following manufacturer protocols).
Once the hCMG enzyme reactions are complete, 10 μL of 1× Stop Solution and Detection Buffer (buffer from BellBrook Labs; containing 4 nM ADP Alexa Fluor-633 Tracer plus ADP^2 Antibody) are added to each reaction, and to the High-FP control. The Low-FP control receives 10 μL of 1× Stop Solution and Detection Buffer containing only 4 nM ADP Alexa Fluor-633 Tracer (no Antibody). Samples are incubated at 25° C. for 1 hr, then read in the plate reader. […] Plate readings from these tests of potential positive hits should be similar to that seen with the Low-FP control, or such hits may instead be false-positives.

[2] = tested on: HSP90; conditions: cited from earlier work
[3] = tested on: human Topoisomerase-II; experiment: Topoisomerase II decatenation assay; format: biochemical
Description: The Topoisomerase II drug screening kit (kDNA-based; TopoGEN, TG1009-1A) was used to assess in vitro Topo II enzyme activity according to the manufacture protocol. Assays were performed in […] reactions with 4 μL of 5× Assay Buffer (0.25 M Tris-HCl (pH 8), 10 mM ATP, 0.75 M NaCl, 50 mM MgCl2, 2.5 mM Dithiothreitol, 150 mg/ml BSA), 1 mL kDNA ([…]), 1 mL DMSO solvent or compounds at indicated concentrations, 1 mL Topoisomerase II (2 Units), 13 mL water. Assays were incubated at 37° C. for 30 min and stopped by addition of 2 mL 10% SDS and Proteinase K (50 mg/ml). After incubating at 37° C. for 15 min, samples were mixed with 1/10 volume of loading buffer and resolved on a 1% agarose gel.

[4] = tested on: solid tumor cell lines (NCI-60 set); conditions: cited from earlier work
[5] = tested on: HaCaT cells; experiment: CellTiter-Glo viability, HaCaT cells; format: cell-based, human; conditions: 72 hr
Description: Human keratinocytes (HaCaT; RRID:CVCL_0038), 143B cells (osteosarcoma; RRID:CVCL_2270), and HEK-293T (RRID:CVCL_0063) cells were maintained in Dulbecco's Modified Eagle's Medium (DMEM) supplemented with 10% fetal bovine serum (FBS; Peak Serum, PS-FB-2). Human Psn1 (pancreatic ductal adenocarcinoma; RRID:CVCL_1644) and H460 (non-small cell lung carcinoma; RRID:CVCL_0459) cells were cultured in RPMI-1640 medium supplemented with 10% FBS. HaCaT cells were synchronized in Go using serum starvation for 48 hr and released into the cell cycle by addition of DMEM with 10% FBS (51). Novobiocin (cat #46531) and Courmermycin-A1 (cat #C9270) were obtained from Sigma. Etoposide (cat #S1225) and AT7519 (cat #S1524) were obtained from SelleckChem. All stock solutions of inhibitors were stored at −20° C. as 10 mM suspensions in DMSO.
Cell viability determinations were performed using CellTiter-Glo Assays (Promega; cat #G7572). Cells were seeded in 96-well plates at a density of ~3×10^3 cells/well and treated with drugs for 72 hr, after which the cells were processed for viability using CellTiter-Glo reagent according to the instructions of the manufacturer. Each drug concentration test was performed using four replicates, and results averaged and plotted on graphs, +/−1 s.d.

T1 sequence (P49736 whole entry): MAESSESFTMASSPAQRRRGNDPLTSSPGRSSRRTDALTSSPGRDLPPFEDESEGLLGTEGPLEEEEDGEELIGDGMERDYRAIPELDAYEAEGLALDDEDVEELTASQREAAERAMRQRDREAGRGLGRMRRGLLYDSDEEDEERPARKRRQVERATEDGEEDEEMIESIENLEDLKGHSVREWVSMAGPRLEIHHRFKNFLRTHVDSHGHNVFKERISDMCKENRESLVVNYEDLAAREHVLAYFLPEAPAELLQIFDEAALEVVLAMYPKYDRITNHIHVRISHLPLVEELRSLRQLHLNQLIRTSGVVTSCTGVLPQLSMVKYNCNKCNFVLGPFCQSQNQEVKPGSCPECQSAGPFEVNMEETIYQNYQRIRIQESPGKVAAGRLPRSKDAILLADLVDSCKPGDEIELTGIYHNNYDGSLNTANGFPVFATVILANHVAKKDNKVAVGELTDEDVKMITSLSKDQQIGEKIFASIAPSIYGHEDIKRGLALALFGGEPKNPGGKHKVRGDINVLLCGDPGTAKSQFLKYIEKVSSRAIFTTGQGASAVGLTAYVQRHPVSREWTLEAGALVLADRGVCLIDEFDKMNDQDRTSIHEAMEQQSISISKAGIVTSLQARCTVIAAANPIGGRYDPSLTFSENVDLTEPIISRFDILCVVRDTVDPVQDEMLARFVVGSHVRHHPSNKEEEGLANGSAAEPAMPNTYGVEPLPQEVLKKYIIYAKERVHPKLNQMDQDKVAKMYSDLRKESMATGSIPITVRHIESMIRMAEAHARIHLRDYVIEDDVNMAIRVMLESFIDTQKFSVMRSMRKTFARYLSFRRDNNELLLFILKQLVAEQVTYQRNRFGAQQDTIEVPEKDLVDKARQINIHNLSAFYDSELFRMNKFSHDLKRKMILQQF
T1 sequence (P25205 whole entry, further chain): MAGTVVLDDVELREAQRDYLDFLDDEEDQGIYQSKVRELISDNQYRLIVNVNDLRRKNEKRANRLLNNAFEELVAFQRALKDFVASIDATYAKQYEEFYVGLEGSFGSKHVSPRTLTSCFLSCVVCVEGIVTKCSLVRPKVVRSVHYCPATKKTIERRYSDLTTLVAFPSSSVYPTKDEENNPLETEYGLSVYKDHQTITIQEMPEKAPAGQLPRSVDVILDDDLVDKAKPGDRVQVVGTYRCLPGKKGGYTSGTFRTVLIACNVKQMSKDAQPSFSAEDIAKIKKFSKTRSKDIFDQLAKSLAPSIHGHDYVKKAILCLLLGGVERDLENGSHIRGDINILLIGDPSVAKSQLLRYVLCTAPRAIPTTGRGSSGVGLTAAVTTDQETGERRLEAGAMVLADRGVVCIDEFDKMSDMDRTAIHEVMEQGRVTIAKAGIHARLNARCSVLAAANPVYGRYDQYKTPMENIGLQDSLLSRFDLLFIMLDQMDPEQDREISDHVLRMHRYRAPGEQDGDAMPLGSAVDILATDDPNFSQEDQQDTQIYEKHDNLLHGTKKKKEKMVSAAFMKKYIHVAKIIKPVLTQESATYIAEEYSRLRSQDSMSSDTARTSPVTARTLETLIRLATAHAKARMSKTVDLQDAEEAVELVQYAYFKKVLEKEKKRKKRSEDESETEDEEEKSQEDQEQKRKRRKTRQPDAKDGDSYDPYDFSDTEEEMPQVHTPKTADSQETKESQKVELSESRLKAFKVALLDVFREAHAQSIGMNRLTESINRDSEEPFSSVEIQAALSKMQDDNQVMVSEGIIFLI
T1 sequence (P33991 whole entry, further chain): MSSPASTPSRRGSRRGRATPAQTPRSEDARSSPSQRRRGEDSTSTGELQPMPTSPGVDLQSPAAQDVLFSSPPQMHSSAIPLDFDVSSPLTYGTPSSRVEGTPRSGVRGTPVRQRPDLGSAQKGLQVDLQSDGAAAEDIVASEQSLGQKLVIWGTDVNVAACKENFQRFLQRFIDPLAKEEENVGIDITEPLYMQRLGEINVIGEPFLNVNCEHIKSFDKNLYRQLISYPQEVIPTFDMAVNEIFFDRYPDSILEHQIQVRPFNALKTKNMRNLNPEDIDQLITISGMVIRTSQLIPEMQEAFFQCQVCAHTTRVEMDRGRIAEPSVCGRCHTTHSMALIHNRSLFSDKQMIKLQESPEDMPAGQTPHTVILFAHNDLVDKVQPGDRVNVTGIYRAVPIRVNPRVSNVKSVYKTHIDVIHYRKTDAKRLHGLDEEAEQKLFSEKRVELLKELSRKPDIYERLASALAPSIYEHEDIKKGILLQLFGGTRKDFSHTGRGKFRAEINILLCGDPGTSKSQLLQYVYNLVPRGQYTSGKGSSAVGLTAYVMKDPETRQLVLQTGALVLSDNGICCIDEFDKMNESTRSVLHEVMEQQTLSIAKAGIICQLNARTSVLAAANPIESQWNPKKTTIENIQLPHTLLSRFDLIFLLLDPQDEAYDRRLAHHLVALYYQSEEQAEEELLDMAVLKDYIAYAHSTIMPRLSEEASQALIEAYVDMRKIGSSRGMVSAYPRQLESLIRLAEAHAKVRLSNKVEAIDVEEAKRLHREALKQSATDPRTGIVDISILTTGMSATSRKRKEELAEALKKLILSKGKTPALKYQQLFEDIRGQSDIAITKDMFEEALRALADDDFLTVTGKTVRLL
T1 sequence (P33992 whole entry, further chain): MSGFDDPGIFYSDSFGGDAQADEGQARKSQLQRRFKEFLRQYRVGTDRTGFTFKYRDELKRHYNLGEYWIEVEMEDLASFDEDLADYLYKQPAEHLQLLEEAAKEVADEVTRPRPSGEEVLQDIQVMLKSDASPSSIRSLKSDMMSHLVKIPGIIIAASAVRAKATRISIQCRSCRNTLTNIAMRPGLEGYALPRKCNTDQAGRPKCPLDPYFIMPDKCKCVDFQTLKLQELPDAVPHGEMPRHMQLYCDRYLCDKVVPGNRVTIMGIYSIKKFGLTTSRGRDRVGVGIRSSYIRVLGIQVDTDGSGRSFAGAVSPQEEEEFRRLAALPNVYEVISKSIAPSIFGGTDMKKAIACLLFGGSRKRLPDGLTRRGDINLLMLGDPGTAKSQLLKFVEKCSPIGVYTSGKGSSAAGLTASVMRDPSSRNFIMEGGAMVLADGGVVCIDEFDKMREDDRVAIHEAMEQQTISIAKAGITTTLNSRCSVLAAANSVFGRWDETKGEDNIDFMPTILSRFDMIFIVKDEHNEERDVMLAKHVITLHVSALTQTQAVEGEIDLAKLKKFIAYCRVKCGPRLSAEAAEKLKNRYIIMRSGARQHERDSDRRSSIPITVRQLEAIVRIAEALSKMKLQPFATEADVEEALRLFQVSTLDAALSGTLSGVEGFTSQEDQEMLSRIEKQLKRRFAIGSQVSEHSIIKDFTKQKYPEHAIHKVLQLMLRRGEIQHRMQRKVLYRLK
T1 sequence (Q14566 whole entry, further chain): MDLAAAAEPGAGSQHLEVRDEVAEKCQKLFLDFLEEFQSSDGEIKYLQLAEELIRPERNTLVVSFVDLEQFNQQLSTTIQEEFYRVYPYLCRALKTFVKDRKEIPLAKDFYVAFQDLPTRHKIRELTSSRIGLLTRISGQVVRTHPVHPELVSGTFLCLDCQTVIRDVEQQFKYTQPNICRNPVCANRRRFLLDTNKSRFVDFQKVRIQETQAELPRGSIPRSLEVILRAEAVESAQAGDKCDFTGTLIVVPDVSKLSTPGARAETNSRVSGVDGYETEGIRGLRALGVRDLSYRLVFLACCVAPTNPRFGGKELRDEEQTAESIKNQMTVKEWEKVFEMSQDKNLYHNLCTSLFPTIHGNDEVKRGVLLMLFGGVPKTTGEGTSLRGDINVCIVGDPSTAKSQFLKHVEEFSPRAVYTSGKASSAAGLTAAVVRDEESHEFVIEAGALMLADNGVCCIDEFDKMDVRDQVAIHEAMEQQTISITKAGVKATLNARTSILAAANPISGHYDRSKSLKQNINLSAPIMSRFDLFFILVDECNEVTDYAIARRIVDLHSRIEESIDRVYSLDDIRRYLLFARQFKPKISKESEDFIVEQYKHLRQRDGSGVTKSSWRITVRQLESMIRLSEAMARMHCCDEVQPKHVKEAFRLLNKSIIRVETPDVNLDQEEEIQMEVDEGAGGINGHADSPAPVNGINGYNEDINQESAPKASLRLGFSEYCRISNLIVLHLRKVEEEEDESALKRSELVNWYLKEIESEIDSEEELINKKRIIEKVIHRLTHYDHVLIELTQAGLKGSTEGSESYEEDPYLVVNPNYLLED
T1 sequence (P33993 whole entry, further chain): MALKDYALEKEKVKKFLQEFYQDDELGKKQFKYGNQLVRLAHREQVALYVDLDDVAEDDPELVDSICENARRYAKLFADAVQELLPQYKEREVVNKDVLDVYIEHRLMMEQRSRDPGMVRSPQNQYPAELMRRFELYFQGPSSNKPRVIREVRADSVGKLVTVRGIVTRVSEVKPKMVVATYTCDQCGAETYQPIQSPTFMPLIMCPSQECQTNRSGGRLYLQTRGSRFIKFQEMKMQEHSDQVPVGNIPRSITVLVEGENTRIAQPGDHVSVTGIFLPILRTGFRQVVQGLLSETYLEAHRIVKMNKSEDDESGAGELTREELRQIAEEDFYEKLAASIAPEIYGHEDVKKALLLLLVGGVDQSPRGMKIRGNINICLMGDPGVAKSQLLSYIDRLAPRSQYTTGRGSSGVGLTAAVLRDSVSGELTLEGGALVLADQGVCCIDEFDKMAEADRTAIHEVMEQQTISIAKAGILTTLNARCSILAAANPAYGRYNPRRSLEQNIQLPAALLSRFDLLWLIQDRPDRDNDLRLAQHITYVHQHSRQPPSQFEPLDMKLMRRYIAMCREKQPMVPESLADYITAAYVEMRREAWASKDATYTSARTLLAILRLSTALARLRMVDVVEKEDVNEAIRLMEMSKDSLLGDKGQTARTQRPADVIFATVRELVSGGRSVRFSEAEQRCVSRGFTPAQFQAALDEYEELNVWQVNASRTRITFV

| SMILES | inhibition of hCMG ATP hydrolysis [1] | doses required to inhibit HSP90 [2] [µM] | CA1 concentration required for human Topo-II inhibition relative to that required to block CMG activity ([3]; decatenation assay in vitro) | human Topoisomerase-II inhibition ([3]; low concentrations used in cell-based experiments) | growth suppression of solid tumor cell lines [4] | IC50 ([5]; Homo sapiens, HaCaT) [µM] | human Topoisomerase-II inhibition ([3]; 1 mM) | effect on HaCaT viability [5] |
| --- | --- | --- | --- | --- | --- | --- | --- | --- |
| CO[C@@H]1[C@@H](OC(=O)c2ccc(C)[nH]2)[C@@H](O)[C@H](Oc2ccc3c(O)c(NC(=O)c4c[nH]c(C(=O)Nc5c(O)c6ccc(O[C@@H]7OC(C)(C)[C@H](OC)[C@@H](OC(=O)c8ccc(C)[nH]8)[C@H]7O)c(C)c6oc5=O)c4C)c(=O)oc3c2C)OC1(C)C [CA1] | potent inhibitor of ATP hydrolysis by the hCMG | 700 to 1000 | ~ 10 fold | no inhibitory effect on human Topoisomerase-II at low concentrations | sensitive to similar low micromolar concentrations | ~15 |  |  |
| CO[C@@H]1[C@@H](OC(N)=O)[C@@H](O)[C@H](Oc2ccc3c(O)c(NC(=O)c4ccc(O)c(CC=C(C)C)c4)c(=O)oc3c2C)OC1(C)C [novobiocin] | very little inhibitory effect on the hCMG | 700 to 1000 |  |  | largely insensitive |  | no effect at 1 mM | little effect on viability |
